The source of these data is patent publication US7998958B2, “Substituted N-arylsulfonylheterocyclic amines as gamma-secretase inhibitors” (Schering Corporation, priority 2004, dated 2011).

For the assay, the system named is gamma-secretase. Nature of the assay: Gamma-secretase activity in membranes of 293 cells expressing C99 (SPC99-Ion), Aβ 40 / Aβ 42 by ECL immunoassay. The assay is classed as biochemical. The note with it: gamma-secretase membrane assay; single values listed after 'within the range of about 1 nM to about 25 nM, i.e.'. Here is the method: Gamma-secretase activity was determined as described by Zhang et al. (Biochemistry, 40 (16), 5049-5055, 2001), which is herein incorporated by reference. Activity is expressed either as a percent inhibition or as the concentration of compound producing 50% inhibition of enzyme activity.
Reagents. Antibodies W02, G2-10, and G2-11 were obtained from Dr. Konrad Beyreuther (University of Heidelberg, Heidelberg, Germany). W02 recognizes residues 5-8 of Aβ peptide, while G2-10 and G2-11 recognize the specific C-terminal structure of Aβ 40 and Aβ42, respectively. Biotin-4G8 was purchased from Senetec (St. Louis, Mo.). All tissue culture reagents used in this work were from Life Technologies, Inc., unless otherwise specified. Pepstatin A was purchased from Roche Molecular Biochemicals; DFK167 was from Enzyme Systems Products (Livermore, Calif.).
cDNA Constructs, Tissue Culture, and Cell Line Construction. The construct SPC99-Ion, which contains the first 18 residues and the C-terminal 99 amino acids of APP carrying the London mutation, has been described (Zhang, L., Song, L., and Parker, E. (1999) J. Biol. Chem. 274, 8966-8972). Upon insertion into the membrane, the 17 amino acid signal peptide is processed, leaving an additional leucine at the N-terminus of Aβ. SPC99-Ion was cloned into the pcDNA4/TO vector (Invitrogen) and transfected into 293 cells stably transfected with pcDNA6/TR, which is provided in the T-REx system (Invitrogen). The transfected cells were selected in Dulbecco's modified Eagle's media (DMEM) supplemented with 10% fetal bovine serum, 100 units/mL penicillin, 100 µg/mL streptomycin, 250 µg/mL zeocin, and 5 µg/mL blasticidin (Invitrogen). Colonies were screened for Aβ production by inducing C99 expression with […] tetracycline for 16-20 h and analyzing conditioned media with a sandwich immunoassay (see below). One of the clones, designated as pTRE.15, was used in these studies.
Membrane Preparation. C99 expression in cells was induced with […] tetracycline for 20 h. The cells were pretreated with […] 12-myristate 13-acetate (PMA) and […] brefeldin A (BFA) for 5-6 h at 37° C. before harvesting. The cells were washed 3 times with cold phosphate-buffered saline (PBS) and harvested in buffer A containing 20 mM Hepes (pH 7.5), 250 mM sucrose, 50 mM KCl, 2 mM EDTA, 2 mM EGTA, and Complete protease inhibitor tablets (Roche Molecular Biochemicals). The cell pellets were flash-frozen in liquid nitrogen and stored at −70 C before use.
To make membranes, the cells were resuspended in buffer A and lysed in a nitrogen bomb at 600 psi. The cell lysate was centrifuged at 1500 g for 10 min to remove nuclei and large cell debris. The supernatant was centrifuged at 100000 g for 1 h. The membrane pellet was resuspended in buffer A plus 0.5 M NaCl, and the membranes were collected by centrifugation at 200000 g for 1 h. The salt-washed membrane pellet was washed again in buffer A and centrifuged at 100000 g for 1 h. The final membrane pellet was resuspended in a small volume of buffer A using a Teflon-glass homogenizer. The protein concentration was determined, and membrane aliquots were flash-frozen in liquid nitrogen and stored at −70° C.
γ-Secretase Reaction and AβAnalysis. To measure γ-secretase activity, membranes were incubated at 37° C. for 1 h in 50 μL of buffer containing 20 mM Hepes (pH 7.0) and 2 mM EDTA. At the end of the incubation, Aβ 40 and Aβ 42 were measured using an electrochemiluminescence (ECL)-based immunoassay. Aβ 40 was identified with antibody pairs TAG-G2-10 and biotin-W02, while Aβ 42 was identified with TAG-G2-11 and biotin-4G8. The ECL signal was measured using an ECL-M8 instrument (IGEN International, Inc.) according to the manufacturer's instructions. The data presented were the means of the duplicate or triplicate measurements in each experiment. The characteristics of γ-secretase activity described were confirmed using more than five independent membrane preparations.

The molecule `O=C(CC1([C@H]2COC[C@@H](C3CC3)N2S(=O)(=O)c2ccc(Cl)cc2)CC1)N1C2CCC1CC(N1CCCCC1)C2` (single isomer, unassigned) [Example 142] came in with an IC50 of 12.4 nM.
The same measure for `O=C(OC[C@H]1COC[C@@H](c2cc(F)cc(F)c2)N1S(=O)(=O)c1ccc(Cl)cc1)N1CCC(N2CCCCC2)CC1` [Example 2]: 6.8 nM.
Regarding `CCC[C@@H]1COC[C@H](C2(OC(=O)N3CC4CCC(C3)N4CCO)CC2)N1S(=O)(=O)c1ccc(Cl)cc1` [Example 15], the IC50 was determined as 3.6 nM.
To `CC(C)(CO)N1CCN(C(=O)OC2(C3COCC(c4cc(F)cc(F)c4)N3S(=O)(=O)c3ccc(Cl)cc3)CC2)CC1` (stereo not shown) [Example 16, 4-(2-Hydroxy-1,1-dimethyl-ethyl)-piperazine-1-carboxylic acid 1-[4-(4-chloro-benzenesulfonyl)-5-(3,5-difluoro-phenyl)-morpholin-3-yl]-cyclopropyl ester] belongs 1.4 nM.
To `O=C(OC[C@H]1COC[C@@H](C2CC2)N1S(=O)(=O)c1ccc(Cl)cc1)N1CCC(N2CCCCC2)CC1` [Example 30] belongs 11.1 nM.
To `CC(C)(CO)N1CCN(C(=O)OC2(C3COCC(C4CC4)N3S(=O)(=O)c3ccc(Cl)cc3)CC2)CC1` (stereo not shown) [Example 35, 4-(2-Hydroxy-1,1-dimethyl-ethyl)-piperazine-1-carboxylic acid 1-[4-(4-chloro-benzenesulfonyl)-5-cyclopropyl-morpholin-3-yl]-cyclopropyl ester] belongs 9.5 nM; to `CCCC1(O)CCN(C(=O)OC2([C@H]3COC[C@@H](C4CC4)N3S(=O)(=O)c3ccc(Cl)cc3)CC2)C1` (stereo partly shown) [Example 36], 13.3 nM; to `O=C(OC1([C@H]2COC[C@@H](C3CC3)N2S(=O)(=O)c2ccc(Cl)cc2)CC1)N1CC2CCC(C1)N2CCO` [Example 43], 7.9 nM.
Consider `O=C(O)CC1CCN(C(=O)OC2([C@H]3COC[C@@H](C4CC4)N3S(=O)(=O)c3ccc(Cl)cc3)CC2)CC1` [Example 47], for which inhibition was half-maximal at 24.5 nM (IC50).
The same measure for `CN1CC2CCC(C1)N2C(=O)OC1([C@H]2COC[C@@H](C3CC3)N2S(=O)(=O)c2ccc(Cl)cc2)CC1` [Example 51]: 6.2 nM; for `CN(C)CC(=O)N1C2CCC1CN(C(=O)OC1([C@H]3COC[C@@H](C4CC4)N3S(=O)(=O)c3ccc(Cl)cc3)CC1)C2` [Example 59]: 8.9 nM; for `C[C@@H]1OC[C@H](C2(OC(=O)N3CC[C@@H](O)C3)CC2)N(S(=O)(=O)c2ccc(Cl)cc2)[C@@H]1C1CC1` [Example 69]: 5.2 nM.
To `C[C@H]1OC[C@H](C2(OC(=O)N3CC4CCC(C3)N4CCO)CC2)N(S(=O)(=O)c2ccc(Cl)cc2)[C@@H]1C1CC1` [Example 75] belongs 0.9 nM; to `CC(C)[C@@H]1COC[C@H](C2(OC(=O)N3CCN(C(C)(C)CO)CC3)CC2)N1S(=O)(=O)c1ccc(Cl)cc1` [Example 78], 3.9 nM.
Molecule `C[C@H]1N(S(=O)(=O)c2ccc(Cl)cc2)[C@@H](C2(OC(=O)N3CCC(C(N)=O)CC3)CC2)COC1(C)C` [Example 88] had an IC50 of 6.7 nM. This IC50 lies about 1.7-fold higher than the previous one.
Molecule `CC(C)(CO)N1CCN(C(=O)OC2(C3COCC(CC4CC4)N3S(=O)(=O)c3ccc(Cl)cc3)CC2)CC1` (stereo not shown) [Example 94, 4-(2-Hydroxy-1,1-dimethyl-ethyl)-piperazine-1-carboxylic acid 1-[4-(4-chloro-benzenesulfonyl)-5-cyclopropylmethyl-morpholin-3-yl]-cyclopropyl ester] showed an IC50 of 2.1 nM. This IC50 lies about 3.2-fold lower than the previous one.
Regarding `O=C(OC1([C@H]2COC[C@@H](CC3CC3)N2S(=O)(=O)c2ccc(Cl)cc2)CC1)N1CC2CC1CN2CCO` (stereo partly shown) [Example 98], half-maximal inhibition (IC50) was put at 3.6 nM.
The same measure for `O=C(OC1([C@H]2COC[C@@H](CC3CC3)N2S(=O)(=O)c2ccc(Cl)cc2)CC1)N1CC2CCC(C1)N2CCO` [Example 99]: 0.9 nM; for `CN1CCN(C(=O)OC2([C@H]3COC[C@@H](CC4CC4)N3S(=O)(=O)c3ccc(Cl)cc3)CC2)CC1=O` [Example 110]: 5.7 nM.
The same measure for `CN1CCCN(C(=O)OC2([C@H]3COC[C@@H](CC4CC4)N3S(=O)(=O)c3ccc(Cl)cc3)CC2)CC1` [Example 122]: 4.2 nM; for `O=C(OC1([C@H]2COC[C@@H](CC3CC3)N2S(=O)(=O)c2cc(F)cc(F)c2)CC1)N1CC2CCC(C1)N2` [Example 135]: 4.2 nM.
The same measure for `O=C(C(O)C1([C@H]2COC[C@@H](C3CC3)N2S(=O)(=O)c2ccc(Cl)cc2)CC1)N1CC2CCC(C1)N2` (stereo partly drawn) [Example 146, alpha-[1-[4-[(4-chlorophenyl)sulfonyl]-5(r)-cyclopropyl-3(s)-morpholinyl]cyclopropyl]-beta-oxo-3,8-diazabicyclo[3.2.1]octane-3-ethanol]: 10.1 nM.
